According to patent US8765730B2 (Hoffmann-La Roche Inc, priority 2010, dated 2014):

Target: T1, human GPBAR1 receptor (Homo sapiens, UniProt Q8TDU6)
T1 construct: expressed in transfected cells
T1 sequence (Q8TDU6 1-330): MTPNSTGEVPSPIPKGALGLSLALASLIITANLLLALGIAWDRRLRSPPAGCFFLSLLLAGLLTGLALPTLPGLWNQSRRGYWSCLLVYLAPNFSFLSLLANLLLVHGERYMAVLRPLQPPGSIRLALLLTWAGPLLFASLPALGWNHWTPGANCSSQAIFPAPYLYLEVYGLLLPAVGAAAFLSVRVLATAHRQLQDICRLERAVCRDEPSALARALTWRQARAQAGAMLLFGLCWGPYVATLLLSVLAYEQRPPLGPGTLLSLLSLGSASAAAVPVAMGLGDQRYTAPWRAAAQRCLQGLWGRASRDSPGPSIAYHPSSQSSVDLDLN
Assay: functional cAMP assay in CHO-dhfr(minus) cells expressing human GPBAR1 receptors
Format: cell-based
Settings: human EC50, functional cAMP assay, 30 min at 30° C.
How it was run: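 Agonist cAMP read-out: stable GPBAR1 CHO-dhfr− clone, 30 min compound exposure at 30° C following 30 min IBMX (1 mM) preincubation in Krebs Ringer bicarbonate. Time-resolved energy-transfer detection gives EC50; parental CHO cells serve as counter-screen.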

Row | SMILES | EC50
1 | Cc1cc(/C(CC(c2ccc(-c3ccc(C(=O)O)cc3C)cc2)c2ccc(Cl)cc2F)=N/O)ccn1 (centres unmarked) [Example 456, 4′-[1-(4-Chloro-2-fluoro-phenyl)-3-[(E)-hydroxyimino]-3-(2-methyl-pyridin-4-yl)-propyl]-2-methyl-biphenyl-4-carboxylic acid] | 16 nM
2 | Cc1cc(/C(CC(c2ccc(-c3ccc(C(=O)O)s3)cc2)c2ccc(Cl)cc2F)=N/O)ccn1 (centres unmarked) [Example 457, 5-{4-[1-(4-Chloro-2-fluoro-phenyl)-3-[(E)-hydroxyimino]-3-(2-methyl-pyridin-4-yl)-propyl]-phenyl}-thiophene-2-carboxylic acid] | 17 nM
3 | Cc1cc(/C(CC(c2ccc(-c3c[nH]c(=O)[nH]c3=O)cc2)c2ccc(Cl)cc2F)=N/O)ccn1 (centres unmarked) [Example 458, 5-{4-[1-(4-Chloro-2-fluoro-phenyl)-3-[(E)-hydroxyimino]-3-(2-methyl-pyridin-4-yl)-propyl]-phenyl}-1H-pyrimidine-2,4-dione] | 22 nM
4 | Cn1cc(/C(CC(c2ccc(-c3ccc(CC#N)cc3)cc2)c2ccc(Cl)cc2F)=N/O)ccc1=O (centres unmarked) [Example 459, {4′-[1-(4-Chloro-2-fluoro-phenyl)-3-[(E)-hydroxyimino]-3-(1-methyl-6-oxo-1,6-dihydro-pyridin-3-yl)-propyl]-biphenyl-4-yl}-acetonitrile] | 364 nM
5 | Cn1cc(/C(CC(c2ccc(-c3ccc(CC(=O)O)cc3)cc2)c2ccc(Cl)cc2F)=N/O)ccc1=O (centres unmarked) [Example 460, {4′-[1-(4-Chloro-2-fluoro-phenyl)-3-[(E)-hydroxyimino]-3-(1-methyl-6-oxo-1,6-dihydro-pyridin-3-yl)-propyl]-biphenyl-4-yl}-acetic acid] | 421 nM
6 | CCOC(=O)c1ccc(-c2ccc([C@@H](C/C(=N\O)c3ccc(=O)n(C)c3)c3ccc(Cl)cc3F)cc2)s1 [Example 467, 5-{4-[(−)-1-(4-Chloro-2-fluoro-phenyl)-3-[(E)-hydroxyimino]-3-(1-methyl-6-oxo-1,6-dihydro-pyridin-3-yl)-propyl]-phenyl}-thiophene-2-carboxylic acid ethyl ester] | 348 nM
7 | Cn1cc(/C(C[C@H](c2ccc(-c3ccc(C(=O)O)s3)cc2)c2ccc(Cl)cc2F)=N/O)ccc1=O [Example 468, 5-{4-[(−)-1-(4-Chloro-2-fluoro-phenyl)-3-[(E)-hydroxyimino]-3-(1-methyl-6-oxo-1,6-dihydro-pyridin-3-yl)-propyl]-phenyl}-thiophene-2-carboxylic acid] | 349 nM
8 | Cn1cc(/C(C[C@@H](c2ccc(-c3ccc(C(=O)O)s3)cc2)c2ccc(Cl)cc2F)=N/O)ccc1=O [Example 470, 5-{4-[(+)-1-(4-Chloro-2-fluoro-phenyl)-3-[(E)-hydroxyimino]-3-(1-methyl-6-oxo-1,6-dihydro-pyridin-3-yl)-propyl]-phenyl}-thiophene-2-carboxylic acid] | 61 nM
9 | Cn1cc(/C(CC(c2ccc(-c3c[nH]c(=O)[nH]c3=O)cc2)c2ccc(Cl)cc2F)=N/O)ccc1=O (centres unmarked) [Example 471, 5-{4-[1-(4-Chloro-2-fluoro-phenyl)-3-[(E)-hydroxyimino]-3-(1-methyl-6-oxo-1,6-dihydro-pyridin-3-yl)-propyl]-phenyl}-1H-pyrimidine-2,4-dione] | 170 nM
10 | Cn1cc(/C(CC(c2ccc(-c3ccc(C(=O)O)c(F)c3)cc2)c2ccc(Cl)cc2Cl)=N/O)ccc1=O (centres unmarked) [Example 473, 4′-[1-(2,4-Dichloro-phenyl)-3-[(E)-hydroxyimino]-3-(1-methyl-6-oxo-1,6-dihydro-pyridin-3-yl)-propyl]-3-fluoro-biphenyl-4-carboxylic acid] | 29 nM
11 | Cn1cc(/C(CC(c2ccc(F)cc2)c2ccc(Br)cc2)=N/O)ccc1=O (centres unmarked) [Example 479, 5-{3-(4-Bromo-phenyl)-3-(4-fluoro-phenyl)-1-[(E)-hydroxyimino]-propyl}-1-methyl-1H-pyridin-2-one] | 13 nM
12 | Cc1cc(/C(C[C@H](c2ccc(C3CCN(S(N)(=O)=O)CC3)cc2)c2ccc(Cl)cc2C)=N/O)ccn1 [Example 480, (R,E)-4-(4-(1-(4-Chloro-2-methylphenyl)-3-(hydroxyimino)-3-(2-methylpyridin-4-yl)propyl)phenyl)piperidine-1-sulfonamide] | 20 nM
13 | Cc1cc(/C(C[C@H](c2ccc(C3CN(C(=O)OC(C)(C)C)C3)cc2)c2ccccc2C)=N/O)ccn1 [Example 481, (R,E)-tert-Butyl 3-(4-(3-(hydroxyimino)-3-(2-methylpyridin-4-yl)-1-o-tolylpropyl)phenyl)-azetidine-1-carboxylate] | 153 nM
14 | Cc1cc(/C(C[C@H](c2ccc(C3CNC3)cc2)c2ccccc2C)=N/O)ccn1 [Example 482, (R,E)-3-(4-(Azetidin-3-yl)phenyl)-1-(2-methylpyridin-4-yl)-3-o-tolylpropan-1-one oxime] | 127 nM
15 | CC(=O)N1CC(c2ccc([C@@H](C/C(=N\O)c3ccnc(C)c3)c3ccccc3C)cc2)C1 [Example 483] | 31 nM
16 | Cc1cc(/C(C[C@H](c2ccc(C3CN(S(C)(=O)=O)C3)cc2)c2ccccc2C)=N/O)ccn1 [Example 484, (R,E)-1-(2-Methylpyridin-4-yl)-3-(4-(1-(methylsulfonyl)azetidin-3-yl)phenyl)-3-o-tolylpropan-1-one oxime] | 10 nM
17 | Cc1cc(/C(C[C@H](c2ccc(C3CN(S(N)(=O)=O)C3)cc2)c2ccccc2C)=N/O)ccn1 [Example 485, (R,E)-3-(4-(3-(Hydroxyimino)-3-(2-methylpyridin-4-yl)-1-o-tolylpropyl)phenyl)azetidine-1-sulfonamide] | 21 nM
18 | Cc1ccccc1[C@@H](C/C(=N\O)c1ccc(=O)n(C)c1)c1ccc(C2CCC(C(=O)O)CC2)cc1 (stereo partly drawn) [Example 487, (S,E)-4-(4-(3-(hydroxyimino)-3-(1-methyl-6-oxo-1,6-dihydropyridin-3-yl)-1-o-tolylpropyl)-phenyl)cyclohexanecarboxylic acid] | 656 nM
19 | Cc1ccccc1[C@@H](C/C(=N\O)c1ccc(=O)n(C)c1)c1ccc([C@H]2CC[C@H](C(=O)O)CC2)cc1 [Example 488, Trans-4-(4-((S,E)-3-(Hydroxyimino)-3-(1-methyl-6-oxo-1,6-dihydropyridin-3-yl)-1-o-tolylpropyl)phenyl)cyclohexanecarboxylic acid] | 612 nM
20 | Cc1ccccc1[C@@H](C/C(=N\O)c1ccc(=O)n(C)c1)c1ccc([C@H]2CC[C@@H](C(=O)O)CC2)cc1 [Example 489, cis-4-(4-((S,E)-3-(hydroxyimino)-3-(1-methyl-6-oxo-1,6-dihydropyridin-3-yl)-1-o-tolylpropyl)phenyl)cyclohexanecarboxylic acid] | 582 nM
21 | Cc1cc(/C(C[C@H](c2ccc(C3CCC(C(=O)O)CC3)cc2)c2ccccc2C)=N/O)ccn1 (stereo partly drawn) [Example 490, (R,E)-4-(4-(3-(Hydroxyimino)-3-(2-methylpyridin-4-yl)-1-o-tolylpropyl)phenyl)-cyclohexanecarboxylic acid] | 24 nM
22 | Cc1cc(/C(C[C@H](c2ccc([C@H]3CC[C@@H](C(=O)O)CC3)cc2)c2ccccc2C)=N/O)ccn1 [Example 492, cis-4-{4-[(R)-3-[(E)-hydroxyimino]-3-(2-methyl-pyridin-4-yl)-1-o-tolyl-propyl]-phenyl}-cyclohexanecarboxylic acid] | 18 nM
23 | Cc1ccccc1[C@H](C/C(=N\O)c1ccc(=O)n(C)c1)c1ccc(CC(=O)O)cc1 [Example 493, (R,E)-2-(4-(3-(Hydroxyimino)-3-(1-methyl-6-oxo-1,6-dihydropyridin-3-yl)-1-o-tolylpropyl)phenyl)acetic acid] | 666 nM
